Results reported in patent publication US8575157B2, “Cyclic inhibitors of 11beta-hydroxysteroid dehydrogenase 1” (Vitae Pharmaceuticals, Inc., priority 2010, dated 2013).
“And” between values parts separate entries of the source, which are not always exact repeats. Equal values may be shown once. Read-outs that look alike come from different tables or passages of the source.

Columns and labels:
[1] = molecular target: T1, 11β-HSD1 (Homo sapiens (Human), UniProt P28845); assay type: biochemical; details: human liver microsomes, 100% indicates no inhibition, zero or below zero indicates complete inhibition
T1 sequence (P28845 whole entry): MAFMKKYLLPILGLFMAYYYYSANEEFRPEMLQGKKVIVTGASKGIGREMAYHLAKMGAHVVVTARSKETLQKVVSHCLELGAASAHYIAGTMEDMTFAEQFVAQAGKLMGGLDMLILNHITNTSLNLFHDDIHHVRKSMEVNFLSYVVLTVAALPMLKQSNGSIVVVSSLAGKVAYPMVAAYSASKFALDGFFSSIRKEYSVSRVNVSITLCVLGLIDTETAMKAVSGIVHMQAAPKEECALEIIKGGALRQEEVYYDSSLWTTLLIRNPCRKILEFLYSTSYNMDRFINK

[2] = molecular target: human recombinant cytochrome P450 3A4 (Homo sapiens (Human), UniProt P08684); experiment: CYP3A4 inhibition, Biological Test Example 6; assay type: in vitro ADME
Sequence of human recombinant cytochrome P450 3A4 (P08684 whole entry): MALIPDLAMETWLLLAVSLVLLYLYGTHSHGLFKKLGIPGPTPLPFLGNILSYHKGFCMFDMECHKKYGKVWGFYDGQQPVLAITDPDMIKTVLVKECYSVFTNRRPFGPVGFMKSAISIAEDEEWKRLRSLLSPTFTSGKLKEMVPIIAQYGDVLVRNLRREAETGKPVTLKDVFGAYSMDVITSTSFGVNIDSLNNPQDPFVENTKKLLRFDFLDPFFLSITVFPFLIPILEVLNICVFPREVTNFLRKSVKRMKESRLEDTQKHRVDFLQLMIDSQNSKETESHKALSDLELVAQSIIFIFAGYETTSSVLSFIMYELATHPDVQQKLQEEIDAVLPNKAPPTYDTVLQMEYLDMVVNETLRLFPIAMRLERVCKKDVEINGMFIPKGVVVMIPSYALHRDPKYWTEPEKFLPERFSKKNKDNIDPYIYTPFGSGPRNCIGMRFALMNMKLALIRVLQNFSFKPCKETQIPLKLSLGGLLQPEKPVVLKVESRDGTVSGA

[3] = molecular target: human CYP2C9 (Homo sapiens (Human), UniProt P11712); experiment: CYP2C9 inhibition (Invitrogen kit, OOMR fluorogenic substrate), Biological Test Example 9; assay type: in vitro ADME; details: read-out: Biological Test Example 9 CYP2C9 IC50
Sequence of human CYP2C9 (P11712 whole entry): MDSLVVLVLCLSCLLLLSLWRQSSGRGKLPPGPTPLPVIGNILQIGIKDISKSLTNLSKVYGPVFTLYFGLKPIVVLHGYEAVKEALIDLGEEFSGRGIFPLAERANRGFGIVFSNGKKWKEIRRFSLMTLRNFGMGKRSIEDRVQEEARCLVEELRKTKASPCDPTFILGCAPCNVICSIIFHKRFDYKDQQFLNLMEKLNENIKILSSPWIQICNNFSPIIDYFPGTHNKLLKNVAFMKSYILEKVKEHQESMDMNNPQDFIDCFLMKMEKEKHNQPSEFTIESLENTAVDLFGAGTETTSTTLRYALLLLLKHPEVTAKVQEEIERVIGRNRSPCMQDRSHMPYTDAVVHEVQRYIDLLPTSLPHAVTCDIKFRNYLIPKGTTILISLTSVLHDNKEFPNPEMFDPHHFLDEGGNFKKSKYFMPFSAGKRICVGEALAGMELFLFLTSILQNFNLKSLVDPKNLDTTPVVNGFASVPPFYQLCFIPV

[4] = molecular target: human recombinant cytochrome P450 2C9 (Homo sapiens (Human), UniProt P11712); experiment: CYP2C9 inhibition ([O-methyl-14C]-Naproxen), Biological Test Example 7; assay type: in vitro ADME
Sequence of human recombinant cytochrome P450 2C9 (P11712 whole entry): as above

[5] = fraction unbound in human plasma (equilibrium dialysis), Biological Test Example 5; assay type: in vitro ADME; details: for Biological Test Example 5 (%): fraction unbound in human plasma
[6] = molecular target: human recombinant cytochrome P450 2C19 (Homo sapiens (Human), UniProt P33261); experiment: CYP2C19 inhibition, Biological Test Example 8; assay type: in vitro ADME; details: read-out: Biological Test Example 8 CYP2C19, IC50
Sequence of human recombinant cytochrome P450 2C19 (P33261 whole entry): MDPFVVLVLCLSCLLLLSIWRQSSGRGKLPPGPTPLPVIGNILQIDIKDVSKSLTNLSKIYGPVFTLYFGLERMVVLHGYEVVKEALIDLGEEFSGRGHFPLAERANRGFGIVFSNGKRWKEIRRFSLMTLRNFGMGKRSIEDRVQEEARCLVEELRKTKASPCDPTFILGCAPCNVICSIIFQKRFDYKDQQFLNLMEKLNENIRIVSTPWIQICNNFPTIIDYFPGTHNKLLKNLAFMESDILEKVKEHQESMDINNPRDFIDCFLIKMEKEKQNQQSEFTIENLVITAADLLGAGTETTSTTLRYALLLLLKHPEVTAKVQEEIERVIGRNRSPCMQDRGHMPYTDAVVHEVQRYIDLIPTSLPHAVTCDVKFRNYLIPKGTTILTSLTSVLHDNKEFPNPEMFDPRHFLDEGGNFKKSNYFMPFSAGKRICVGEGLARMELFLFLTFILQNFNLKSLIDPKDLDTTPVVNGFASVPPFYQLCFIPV

[7] = molecular target: T1, 11β-HSD1
[8] = slurry experiment on stability of the crystal form (XRPD); details: 30 minutes
[9] = human recombinant CYP2C19, [N-methyl-14C]-Diazepam

COC[C@]1(c2ccccc2)CCN([C@@H](C)c2ccc(-c3ccn(C)c(=O)c3)cc2)C(=O)O1 [Example 78, (R)-6-Methoxymethyl-3-{(S)-1-[4-(1-methyl-2-oxo-1,2-dihydro-pyridin-4-yl)-phenyl]-ethyl}-6-phenyl-[1,3]oxazinan-2-one]
Average % control inhibition at 100 nM [1]: 58 % control

C[C@@H](c1ccc(-c2ccc(=O)n(C)c2)cc1)N1CC[C@](CC(C)(C)N(C)S(C)(=O)=O)(c2ccccc2)OC1=O [Example 12, N-methyl-N-(2-methyl-1-((S)-3-((S)-1-(4-(1-methyl-6-oxo-1,6-dihydropyridin-3-yl)phenyl)ethyl)-2-oxo-6-phenyl-1,3-oxazinan-6-yl)propan-2-yl)methanesulfonamide]
IC50 ([2]; human recombinant CYP3A4): 4.9 µM
IC50 ([3]; Invitrogen kit, OOMR fluorogenic substrate): 2.5 µM
Biological Test Example 5 (fraction unbound in human plasma) [5]: 0.4%

C[C@@H](c1ccc(-c2cc(=O)n(C)cc2F)cc1)N1CC[C@](CC(C)(C)O)(c2ccccc2)OC1=O [Example 79, 3-{(S)-1-[4-(5-Fluoro-1-methyl-2-oxo-1,2-dihydro-pyridin-4-yl)-phenyl]-ethyl}-(S)-6-(2-hydroxy-2-methyl-propyl)-6-phenyl-[1,3]oxazinan-2-one]
IC50 [2]: > 50 µM
IC50 [4]: > 50 µM
Average % control inhibition at 100 nM [1]: 15 % control
IC50 [6]: > 50 µM

C[C@@H](c1ccc(-c2ccc(=O)n(CC3CC3)c2)cc1)N1CC[C@](CC(C)(C)O)(c2ccccc2)OC1=O [Example 76, 3-{(S)-1-[4-(1-Cyclopropylmethyl-6-oxo-1,6-dihydro-pyridin-3-yl)-phenyl]-ethyl}-(S)-6-(2-hydroxy-2-methyl-propyl)-6-phenyl-[1,3]oxazinan-2-one]
Average % control inhibition at 100 nM [1]: 17 % control

CC[C@@H](c1ccc(-c2ccc(=O)n(CC)c2)cc1)N1CC[C@](CC(C)(C)O)(c2ccccc2)OC1=O [Example 52, (S)-3-((S)-1-(4-(1-ethyl-6-oxo-1,6-dihydropyridin-3-yl)phenyl)propyl)-6-(2-hydroxy-2-methylpropyl)-6-phenyl-1,3-oxazinan-2-one]
Biological Test Example 5 (%) [5]: 9.0%

COC(C)(C)Cn1ccc(-c2ccc([C@H](C)N3CC[C@](CC(C)(C)O)(c4ccccc4)OC3=O)cc2)cc1=O [Example 83, (S)-6-(2-Hydroxy-2-methyl-propyl)-3-(1-{4-[1-(2-methoxy-2-methyl-propyl)-2-oxo-1,2-dihydro-pyridin-4-yl]-phenyl}-ethyl)-6-phenyl-[1,3]oxazinan-2-one]
Average % control inhibition at 100 nM [1]: 54 % control

C[C@@H](c1ccc(-c2ccn(C3CC3)c(=O)c2)cc1)N1CCC(CC(C)(C)O)(C2CC(F)(F)C2)OC1=O (single isomer, unassigned) [Example 95 Isomer 2]
Average % inhibition at 100 nM ([7]; Biological Test Example 1): 8.0%

CC[C@@H](c1ccc(-c2ccn(C)c(=O)c2)cc1)N1CC[C@](CC(C)(C)O)(c2ccccc2)OC1=O [Example 55, (S)-6-(2-hydroxy-2-methylpropyl)-3-((S)-1-(4-(1-methyl-2-oxo-1,2-dihydropyridin-4-yl)phenyl)propyl)-6-phenyl-1,3-oxazinan-2-one]
Biological Test Example 5 (%) [5]: 7.1%

C[C@@H](c1ccc(-c2ccn(CC(C)(C)CO)c(=O)c2)cc1)N1CC[C@](CC(C)(C)O)(c2ccccc2)OC1=O [Example 90, 3-((S)-1-{4-[1-(3-Hydroxy-2,2-dimethyl-propyl)-2-oxo-1,2-dihydro-pyridin-4-yl]-phenyl}-ethyl)-(S)-6-(2-hydroxy-2-methyl-propyl)-6-phenyl-[1,3]oxazinan-2-one]
Average % control inhibition at 100 nM [1]: 4 % control

C[C@@H](c1ccc(-c2ccn(CC(F)(F)F)c(=O)c2)cc1)N1CC[C@](CC(C)(C)O)(c2ccccc2)OC1=O [Example 66, (S)-6-(2-hydroxy-2-methylpropyl)-3-((S)-1-(4-(2-oxo-1-(2,2,2-trifluoroethyl)-1,2-dihydropyridin-4-yl)phenyl)ethyl)-6-phenyl-1,3-oxazinan-2-one]
Biological Test Example 5 (%) [5]: 5.5%

C[C@@H](c1ccc(-c2ccn(CC(C)(C)O)c(=O)c2)cc1)N1CC[C@](CC(C)(C)O)(c2ccccc2)OC1=O [Example 80, (S)-6-(2-Hydroxy-2-methyl-propyl)-3-((S)-1-{4-[1-(2-hydroxy-2-methyl-propyl)-2-oxo-1,2-dihydro-pyridin-4-yl]-phenyl}-ethyl)-6-phenyl-[1,3]oxazinan-2-one]
IC50 [2]: > 50 µM
IC50 [4]: > 50 µM
Average % control inhibition at 100 nM [1]: 37 % control

CC[C@@H](c1ccc(-c2ccc(=O)n(C)c2)cc1)N1CC[C@](CC(C)(C)O)(c2ccccc2)OC1=O [Example 54, (S)-6-(2-hydroxy-2-methylpropyl)-3-((S)-1-(4-(1-methyl-6-oxo-1,6-dihydropyridin-3-yl)phenyl)propyl)-6-phenyl-1,3-oxazinan-2-one]
IC50 [2]: > 50 µM
IC50 [4]: > 50 µM
Biological Test Example 5 (%) [5]: 9.1%

C[C@@H](c1ccc(-c2ccn(C3CC3)c(=O)c2)cc1)N1CCC(CC(C)(C)C)(CC(C)(C)O)OC1=O (single isomer, unassigned) [Example 94 Isomer 1]
Average % inhibition at 100 nM ([7]; Biological Test Example 1, listed as EXAMPLE 94 Isomer 1): 41.9%

COCC(C)Cn1ccc(-c2ccc([C@H](C)N3CC[C@](CC(C)(C)O)(c4ccccc4)OC3=O)cc2)cc1=O (stereo partly drawn) [Example 81, (S)-6-(2-Hydroxy-2-methyl-propyl)-3-((S)-1-{4-[1-(3-methoxy-2-methyl-propyl)-2-oxo-1,2-dihydro-pyridin-4-yl]-phenyl}-ethyl)-6-phenyl-[1,3]oxazinan-2-one]
Average % control inhibition at 100 nM [1]: 11 % control

C[C@@H](c1ccc(-c2ccc(=O)n(C)c2)cc1)N1CC[C@](CC(C)(C)NS(C)(=O)=O)(c2ccccc2)OC1=O [Example 11, N-(2-methyl-1-((S)-3-((S)-1-(4-(1-methyl-6-oxo-1,6-dihydropyridin-3-yl)phenyl)ethyl)-2-oxo-6-phenyl-1,3-oxazinan-6-yl)propan-2-yl)methanesulfonamide]
IC50 ([2]; human recombinant CYP3A4): 14.1 µM
Biological Test Example 5 (fraction unbound in human plasma) [5]: 0.7%

CC(CO)Cn1ccc(-c2ccc([C@H](C)N3CC[C@](CC(C)(C)O)(c4ccccc4)OC3=O)cc2)cc1=O (stereo partly drawn) [Example 82, (S)-6-(2-Hydroxy-2-methyl-propyl)-3-((S)-1-{4-[1-(3-hydroxy-2-methyl-propyl)-2-oxo-1,2-dihydro-pyridin-4-yl]-phenyl}-ethyl)-6-phenyl-[1,3]oxazinan-2-one]
Average % control inhibition at 100 nM [1]: −12 % control

C[C@@H](c1ccc(-c2ccn(C3CC3)c(=O)c2)cc1)N1CC[C@](CC(C)(C)O)(c2ccccc2)OC1=O [anhydrous form of Example 75, 3-{(S)-1-[4-(1-Cyclopropyl-2-oxo-1,2-dihydro-pyridin-4-yl)-phenyl]-ethyl}-(S)-6-(2-hydroxy-2-methyl-propyl)-6-phenyl-[1,3]oxazinan-2-one]
remaining in the anhydrous state during the measurement by XRPD [8]: did not remain in the anhydrous state

C[C@@H](c1ccc(-c2ccn(C3CC3)c(=O)c2)cc1)N1CCC(CC(C)(C)O)(C2CCOCC2)OC1=O (single isomer, unassigned) [Example 91 Isomer 2]
Average % inhibition at 100 nM ([7]; Biological Test Example 1): 13.8%

C[C@@H](c1ccc(-c2ccn(C3CC3)c(=O)c2)cc1)N1CCC(CC(C)(C)C)(CC(C)(C)O)OC1=O (single isomer, unassigned) [Example 94 Isomer 2]
Average % inhibition at 100 nM ([7]; Biological Test Example 1, listed as EXAMPLE 94 Isomer 2): 8.2%

C[C@@H](c1ccc(-c2ccn(C)c(=O)c2)cc1)N1CC[C@](CC(C)(C)O)(c2ccccc2)OC1=O [Example 48, (S)-6-(2-hydroxy-2-methylpropyl)-3-((S)-1-(4-(1-methyl-2-oxo-1,2-dihydropyridin-4-yl)phenyl)ethyl)-6-phenyl-1,3-oxazinan-2-one]
IC50 [2]: > 50 µM
IC50 [3]: 30 µM
IC50 [4]: > 50 µM
Biological Test Example 5 (%) [5]: 8.7%
IC50 [6]: > 50 µM

C[C@@H](c1ccc(-c2ccn(C)c(=O)c2)cc1)N1CC[C@](CC(C)(C)O)(c2ccccc2)OC1=O [anhydrous form of Example 48, (S)-6-(2-hydroxy-2-methylpropyl)-3-((S)-1-(4-(1-methyl-2-oxo-1,2-dihydropyridin-4-yl)phenyl)ethyl)-6-phenyl-1,3-oxazinan-2-one]
remaining in the anhydrous state during the measurement by XRPD [8]: did not remain in the anhydrous state
